Our source for the IC50 values is patent US12421221B2 (ONCOBIX CO., LTD., priority 2019, dated 2025).

In test [1] the target is T1, EGFR mutation Ba/F3 stable cell line DEL19/T790M/C797S (Homo sapiens, UniProt P00533, DEL746-750/T790M/C797S, cells depend on it).
T1 construct: "del19, #32062; del19+T790M, #32072)
Kind of test: Cancer cell growth inhibitory effect (MTT assay). The class given is cell-based, Murine. Particulars: 72 hours, read-out: DEL19/T790M/C797S cell growth inhibition IC50. The protocol: (§1) With respect to the compounds obtained in Examples, a growth inhibitory effect of ALK mutation cancer cells and EGFR mutation Ba/F3 cancer cell lines was measured. The anti-cancer efficacy activity measurement was performed by the following method using an ALK mutation cell line such as H3122 (EML4-ALK v1), H2228 (EML4-ALK v3), etc. and an EGFR mutation Ba/F3 stable cell line.
Ba/F3 stable cell line construction: Murine lymphoid cells performed IL-3 dependent growth. […] A stable cell line was constructed using this principle even without puromycin selection. Briefly, each construction was infected on Ba/F3, and after 48 hours, IL-3 was removed by media exchange and cells were cultured. However, in the case of the wild type EGFR, puromycin selection was performed.
(§2) 2×10^5 cells were seeded on a 96-well plate. After 24 hours, each of the drugs was treated in a dose dependent manner, and incubated after 72 hours, a 15 μL MTT reagent reacted for 4 hours, and then 100 μL 10% SDS was added and incubated for 24 hours. […] MTT result analysis measured the IC50 values through prism software.
In general terms: Tetrazolium dyes change colour on reduction, which living cells bring about.

Test [2] relates to H2228 (EML4-ALK v3). Description: Cancer cell growth inhibitory effect (MTT assay). Particulars: Homo sapiens, NCI-H2228, 72 hours, read-out: H2228 cell growth inhibition IC50. The class given is cell-based. The protocol: as §1, §2
Test [3] concerns H3122 (EML4-ALK v1). Description: Cancer cell growth inhibitory effect (MTT assay). Particulars: Homo sapiens, NCI-H3122, 72 hours, read-out: H3122 cell growth inhibition IC50. The class given is cell-based. The protocol: as §1, §2
Test [4] has as its target ALK (L1196M) (Homo sapiens, UniProt Q9UM73, L1196M). Description: Kinase inhibitory activity (33P-ATP filter-binding, scintillation counting). The class given is biochemical. The protocol: (§3) The measurement of the kinase inhibitory activity was performed in the following method.
(§4) 2. An evaluation compound (DMSO solution) and Mg/ATP were added to perform the reaction.
(§5) 3. After about 40 minutes at room temperature, 10 μL of 0.5% phosphoric acid was added to complete the reaction.
(§6) 4. The reaction solution was divided by 0.5% 10 μL and spotted on a P30 filtermat.
(§7) 5. […] The reaction solution was washed once with methanol and then dried and analyzed with scintillation counting to measure IC50 values.

Test [5] addresses EGFR (del19/T790M/C797S) (Homo sapiens, UniProt P00533, C797S/DEL746-750/T790M). The description is as above. The class given is biochemical. The protocol:
as §3, §4, §5, §6, §7

Test [6] addresses EGFR (del19/L858R/T790M) (Homo sapiens, UniProt P00533, T790M, form not given). Described as above. The class given is biochemical. The protocol:
as §3, §4, §5, §6, §7

Take `COc1cc(N2CCOCC2)c(-c2cnn(C)c2)cc1Nc1ncc(Cl)c(Nc2ccccc2N(C)S(C)(=O)=O)n1` [Example 1, N-(2-((5-chloro-2-((2-methoxy-5-(1-methyl-1H-pyrazol-4-yl)-4-morpholinophenyl)amino)pyrimidine-4-yl)amino)phenyl)-N-methylmethanesulfonamide]: the IC50 in test [1] is less than 100 nM; in test [2], less than 100 nM; in test [3], 50 to 100 nM; in test [4], less than 50 nM; in test [5], less than 50 nM; in test [6], less than 50 nM.

As to `COc1cc(N2CCOCC2)c(-c2cnn(C)c2)cc1Nc1ncc(Cl)c(Nc2ccccc2NS(C)(=O)=O)n1` [Example 2, N-(2-((5-chloro-2-((2-methoxy-5-(1-methyl-1H-pyrazol-4-yl)-4-morpholinophenyl)amino)pyrimidine-4-yl)amino)phenyl)methanesulfonamide], the IC50 in test [2] was less than 100 nM; in test [3] it was 50 to 100 nM; in test [4], less than 50 nM.

As for `COc1cc(N2CCSCC2)c(-c2cnn(C)c2)cc1Nc1ncc(Cl)c(Nc2ccccc2N(C)S(C)(=O)=O)n1` [Example 3], the IC50 is less than 100 nM in test [1]; less than 100 nM in test [2]; 50 to 100 nM in test [3]; less than 50 nM in test [4]; less than 50 nM in test [5]; less than 50 nM in test [6].

With `COc1cc(N2CCN(C)CC2)c(-c2cnn(C)c2)cc1Nc1ncc(Cl)c(Nc2ccccc2N(C)S(C)(=O)=O)n1` [Example 4], the IC50 in test [1] is 50 to 100 nM; in test [2], 50 to 100 nM; in test [3], 50 to 100 nM; in test [4] it was less than 50 nM; in test [5] it was 50 to 100 nM; in test [6] it was less than 50 nM.

For the compound `COc1cc(N2CC3(COC3)C2)c(-c2cnn(C)c2)cc1Nc1ncc(Cl)c(Nc2ccccc2N(C)S(C)(=O)=O)n1` [Example 5, N-(2-((5-chloro-2-((2-methoxy-5-(1-methyl-1H-pyrazol-4-yl)-4-(2-oxa-6-azaspiro[3.3]heptane-6-yl)phenyl)amino)pyrimidine-4-yl)amino)phenyl)-N-methylmethanesulfonamide], the IC50 in test [1] was less than 100 nM; in test [2], less than 100 nM; in test [3], 50 to 100 nM; in test [4], less than 50 nM; in test [5], less than 50 nM; in test [6], less than 50 nM.

`COc1cc(N2CC3(CN(C)C3)C2)c(-c2cnn(C)c2)cc1Nc1ncc(Cl)c(Nc2ccccc2N(C)S(C)(=O)=O)n1` [Example 6, N-(2-((5-chloro-2-((2-methoxy-5-(1-methyl-1H-pyrazol-4-yl)-4-(6-methyl-2,6-diazaspiro[3.3]heptane-2-yl)phenyl)amino)pyrimidine-4-yl)amino)phenyl)-N-methylmethanesulfonamide]: the IC50 in test [1] is 50 to 100 nM; in test [2], 50 to 100 nM; in test [3] it was 50 to 100 nM; in test [4], less than 50 nM; in test [5] it was 50 to 100 nM; in test [6] it was less than 50 nM.

`COc1cc(N2CCSCC2)c(-c2cnn(C)c2)cc1Nc1ncc(Cl)c(Nc2ccccc2NS(C)(=O)=O)n1` [Example 7, N-(2-((5-chloro-2-((2-methoxy-5-(1-methyl-1H-pyrazol-4-yl)-4-thiomorpholinophenyl)amino)pyrimidine-4-yl)amino)phenyl)methanesulfonamide]: the IC50 was less than 100 nM in test [1]; less than 100 nM in test [2]; 50 to 100 nM in test [3]; less than 50 nM in test [4]; less than 50 nM in test [5]; less than 50 nM in test [6].

With `COc1cc(N2CCN(C)CC2)c(-c2cnn(C)c2)cc1Nc1ncc(Cl)c(Nc2ccccc2NS(C)(=O)=O)n1` [Example 8, N-(2-((5-chloro-2-((2-methoxy-5-(1-methyl-1H-pyrazol-4-yl)-4-(4-methylpiperazine-1-yl)phenyl)amino)pyrimidine-4-yl)amino)phenyl)methanesulfonamide], the IC50 is 50 to 100 nM in test [1]; more than 500 nM in test [2]; more than 500 nM in test [3]; less than 50 nM in test [4]; 50 to 100 nM in test [5]; 50 to 100 nM in test [6].

Take `COc1cc(N2CC3(COC3)C2)c(-c2cnn(C)c2)cc1Nc1ncc(Cl)c(Nc2ccccc2NS(C)(=O)=O)n1` [Example 9, N-(2-((5-chloro-2-((2-methoxy-5-(1-methyl-1H-pyrazol-4-yl)-4-(2-oxa-6-azaspiro[3.3]heptane-6-yl)phenyl)amino)pyrimidine-4-yl)amino)phenyl)methanesulfonamide]: the IC50 in test [1] was less than 100 nM; in test [2], 50 to 100 nM; in test [3], 50 to 100 nM; in test [4] it was less than 50 nM; in test [5], less than 50 nM; in test [6] it was less than 50 nM.

For `COc1cc(N2CC3(CN(C)C3)C2)c(-c2cnn(C)c2)cc1Nc1ncc(Cl)c(Nc2ccccc2NS(C)(=O)=O)n1` [Example 10, N-(2-((5-chloro-2-((2-methoxy-5-(1-methyl-1H-pyrazol-4-yl)-4-(6-methyl-2,6-diazaspiro[3.3]heptane-2-yl)phenyl)amino)pyrimidine-4-yl)amino)phenyl)methanesulfonamide], the IC50 in test [1] was 50 to 100 nM; in test [2], more than 500 nM; in test [3] it was more than 500 nM; in test [4] it was less than 50 nM; in test [5] it was 50 to 100 nM; in test [6], 50 to 100 nM.

As to `C=CC(=O)Nc1cc(Nc2nccc(-c3cn(C)c4ccccc34)n2)c(OC)cc1N(C)CCN(C)C` [Osimertinib, osimertinib, reference compound], the values for the IC50 in test [2], in test [3] and in test [4] were more than 500 nM, more than 500 nM and 50 to 100 nM, respectively.
